Patent US9302999B2, “Substituted triazoles as herbicides” (E. I. DU PONT DE NEMOURS AND COMPANY, priority 2012, dated 2016)

What was measured:
Type in all cases: in vivo
[1] = system: velvetleaf (Abutilon theophrasti); experiment: Test C pre-/postemergence: velvetleaf
Summary of the method: (§1)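 Visual injury scored 0–100 (100 = complete control) against untreated controls after 13–15 greenhouse days. Surfactant-containing solvent formulations applied either to soil after sowing (loam/sand) or over 1- to 4-leaf plants, 2–18 cm tall.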

[2] = system: galium (catchweed bedstraw, Galium aparine); experiment: Test C pre-/postemergence: galium
Summary of the method: as §1

[3] = system: oilseed rape (Brassica napus); experiment: Test D pre-/postemergence: oilseed rape
Summary of the method: (§2)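 Visual ratings from 0 (no effect) to 100 (complete control) were made 14–21 days after treatment, relative to controls. Applications were preemergence to seeds in silt loam, or postemergence to 2–18 cm (1–4 leaf) plants in peat-based medium. Compounds were formulated in a surfactant-containing non-phytotoxic solvent.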

[4] = system: cocklebur (common cocklebur, Xanthium strumarium); experiment: Test C pre-/postemergence: cocklebur
Summary of the method: as §1

[5] = system: rice (Oryza sativa); experiment: Test B flooded paddy: rice; details: Flood; 250 g ai/ha; applied to paddy water at 2-leaf stage; visually evaluated after 13 to 15 days
Summary of the method: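 Visual ratings (0 = no effect, 100 = complete control) versus untreated controls were taken 13–15 days after treatment of greenhouse plants. Treatment was added to paddy water held at 3 cm depth on 2-leaf-stage seedlings.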

[6] = system: pigweed (Amaranthus retroflexus); experiment: Test D pre-/postemergence: pigweed
Summary of the method: as §2

[7] = Postemergence, 31 g ai/ha, scale 0 to 100 (0 no effect, 100 complete control)
[8] = Postemergence, 62 g ai/ha, scale 0 to 100 (0 no effect, 100 complete control)
[9] = Postemergence, 125 g ai/ha, scale 0 to 100, 0 no effect, 100 complete control
[10] = Postemergence, 250 g ai/ha, scale 0 to 100
[11] = Postemergence, 250 g ai/ha, scale 0 to 100 (0 no effect, 100 complete control)
[12] = Postemergence, 16 g ai/ha, scale 0 to 100
[13] = Preemergence, 31 g ai/ha, scale of 0 to 100, 0 is no effect, 100 is complete control
[14] = Preemergence, 62 g ai/ha, scale of 0 to 100, 0 is no effect, 100 is complete control
[15] = Preemergence, 125 g ai/ha, scale 0 to 100, 0 no effect, 100 complete control
[16] = Preemergence, 250 g ai/ha, scale 0 to 100, 0 no effect, 100 complete control
[17] = Postemergence, 8 g ai/ha, scale 0 to 100
[18] = Preemergence, 31 g ai/ha, scale 0 (no effect) to 100 (complete control)
[19] = Preemergence, 16 g ai/ha, scale 0 to 100 (0 no effect, 100 complete control)
[20] = Preemergence, 31 g ai/ha, scale 0 to 100 (0 no effect, 100 complete control)
[21] = Preemergence, 62 g ai/ha, scale 0 to 100
[22] = Preemergence, 125 g ai/ha, scale 0 to 100
[23] = Preemergence, 250 g ai/ha, scale 0 to 100

Cc1nn(-c2ccnc(C(F)(F)F)c2)nc1Cc1ccnc(C(F)(F)F)c1 [Compound 137]
Plant response rating, Velvetleaf [1, 7]: 35
Plant response rating, Velvetleaf [1, 8]: 55
Plant response rating, Velvetleaf [1, 9]: 55
Plant response rating, Velvetleaf [1, 10]: 70
Plant response rating, Galium [2, 7]: 45
Plant response rating, Galium [2, 8]: 70
Plant response rating, Galium [2, 9]: 70
Plant response rating, Galium [2, 10]: 70
Plant response rating: Oilseed Rape [3, 7]: 90
Plant response rating: Oilseed Rape [3, 8]: 98
Plant response rating: Oilseed Rape [3, 9]: 100
Plant response rating: Oilseed Rape [3, 11]: 100
Plant response rating, Oilseed Rape [3, 12]: 70
Plant response rating, Cocklebur [4, 7]: 45
Plant response rating, Cocklebur [4, 8]: 50
Plant response rating, Cocklebur [4, 10]: 60
Plant response rating, Rice (0 to 100 scale, 0 is no effect, 100 is complete control) [5]: 40
Plant response rating: Pigweed [6, 7]: 90
Plant response rating: Pigweed [6, 8]: 95
Plant response rating: Pigweed [6, 9]: 100
Plant response rating: Pigweed [6, 11]: 100
Plant response rating, Pigweed [6, 12]: 90

Fc1ccc(-n2nc(Cc3ccnc(C(F)(F)F)c3)c(OCC(F)(F)F)n2)cc1 [Compound 142]
Plant response rating, Velvetleaf [1, 7]: 30
Plant response rating, Velvetleaf [1, 8]: 50
Plant response rating, Velvetleaf [1, 9]: 55
Plant response rating, Velvetleaf [1, 10]: 75
Plant response rating, Velvetleaf [1, 13]: 35
Plant response rating, Velvetleaf [1, 14]: 75
Plant response rating, Velvetleaf [1, 15]: 80
Plant response rating, Velvetleaf [1, 16]: 100
Plant response rating, Galium [2, 7]: 80
Plant response rating, Galium [2, 8]: 80
Plant response rating, Galium [2, 9]: 90
Plant response rating, Galium [2, 10]: 90
Plant response rating, Galium [2, 13]: 60
Plant response rating, Galium [2, 14]: 80
Plant response rating, Galium [2, 15]: 100
Plant response rating, Galium [2, 16]: 100
Plant response rating, Cocklebur [4, 8]: 30
Plant response rating, Cocklebur [4, 9]: 40
Plant response rating, Cocklebur [4, 10]: 50
Plant response rating, Cocklebur [4, 13]: 0
Plant response rating, Cocklebur [4, 14]: 10
Plant response rating, Cocklebur [4, 15]: 10
Plant response rating, Rice (0 to 100 scale, 0 is no effect, 100 is complete control) [5]: 60

Cc1nn(-c2ccc(F)c(F)c2)nc1Oc1ccnc(C(F)(F)F)c1 [Compound 145]
Plant response rating, Velvetleaf [1, 7]: 35
Plant response rating, Velvetleaf [1, 8]: 35
Plant response rating, Velvetleaf [1, 9]: 50
Plant response rating, Velvetleaf [1, 10]: 60
Plant response rating, Velvetleaf [1, 13]: 0
Plant response rating, Velvetleaf [1, 14]: 10
Plant response rating, Velvetleaf [1, 15]: 75
Plant response rating, Velvetleaf [1, 16]: 85
Plant response rating, Galium [2, 7]: 80
Plant response rating, Galium [2, 8]: 80
Plant response rating, Galium [2, 9]: 90
Plant response rating, Galium [2, 10]: 95
Plant response rating, Galium [2, 13]: 60
Plant response rating, Galium [2, 14]: 98
Plant response rating, Galium [2, 15]: 100
Plant response rating, Galium [2, 16]: 100
Plant response rating: Oilseed Rape [3, 7]: 50
Plant response rating: Oilseed Rape [3, 8]: 70
Plant response rating: Oilseed Rape [3, 9]: 100
Plant response rating, Oilseed Rape [3, 17]: 0
Plant response rating, Oilseed Rape [3, 12]: 50
Plant response rating, Cocklebur [4, 7]: 10
Plant response rating, Cocklebur [4, 8]: 15
Plant response rating, Cocklebur [4, 9]: 65
Plant response rating, Cocklebur [4, 10]: 65
Plant response rating, Cocklebur [4, 13]: 0
Plant response rating, Cocklebur [4, 14]: 0
Plant response rating, Cocklebur [4, 15]: 10
Plant response rating, Rice (0 to 100 scale, 0 is no effect, 100 is complete control) [5]: 80
Plant response rating: Pigweed [6, 7]: 95
Plant response rating: Pigweed [6, 8]: 100
Plant response rating: Pigweed [6, 9]: 100
Plant response rating, Pigweed [6, 17]: 20
Plant response rating, Pigweed [6, 12]: 70

CCOc1nn(-c2ccc(F)cc2)nc1Cc1ccnc(C(F)F)c1 [Compound 195]
Plant response rating, Velvetleaf [1, 7]: 45
Plant response rating, Velvetleaf [1, 8]: 50
Plant response rating, Velvetleaf [1, 9]: 60
Plant response rating, Velvetleaf [1, 11]: 65
Plant response rating, Velvetleaf [1, 18]: 10
Plant response rating, Velvetleaf [1, 14]: 25
Plant response rating, Velvetleaf [1, 15]: 55
Plant response rating, Velvetleaf [1, 16]: 90
Plant response rating, Galium [2, 7]: 80
Plant response rating, Galium [2, 8]: 95
Plant response rating, Galium [2, 9]: 95
Plant response rating, Galium [2, 11]: 95
Plant response rating, Galium [2, 18]: 10
Plant response rating, Galium [2, 14]: 80
Plant response rating, Galium [2, 15]: 90
Plant response rating, Galium [2, 16]: 95
Plant response rating: Oilseed Rape [3, 7]: 85
Plant response rating: Oilseed Rape [3, 8]: 95
Plant response rating: Oilseed Rape [3, 9]: 100
Plant response rating: Oilseed Rape [3, 11]: 100
Plant response rating, Oilseed Rape [3, 12]: 70
Plant response rating, Oilseed Rape [3, 19]: 0
Plant response rating, Oilseed Rape [3, 20]: 0
Plant response rating, Oilseed Rape [3, 21]: 0
Plant response rating, Oilseed Rape [3, 22]: 10
Plant response rating, Oilseed Rape [3, 23]: 20
Plant response rating, Cocklebur [4, 10]: 50
Plant response rating, Cocklebur [4, 15]: 0
Plant response rating, Rice (0 to 100 scale, 0 is no effect, 100 is complete control) [5]: 60
Plant response rating: Pigweed [6, 7]: 65
Plant response rating: Pigweed [6, 8]: 75
Plant response rating: Pigweed [6, 9]: 80
Plant response rating: Pigweed [6, 11]: 95
Plant response rating, Pigweed [6, 12]: 60
Plant response rating, Pigweed [6, 19]: 60
Plant response rating, Pigweed [6, 20]: 60
Plant response rating, Pigweed [6, 21]: 60
Plant response rating, Pigweed [6, 22]: 100
Plant response rating, Pigweed [6, 23]: 95

Cc1nn(-c2ccc(F)c(C(F)(F)F)c2)nc1Oc1ccnc(C(F)(F)F)c1 [Compound 147]
Plant response rating, Velvetleaf [1, 13]: 25
Plant response rating, Velvetleaf [1, 14]: 55
Plant response rating, Velvetleaf [1, 15]: 60
Plant response rating, Velvetleaf [1, 16]: 100
Plant response rating, Galium [2, 13]: 100
Plant response rating, Galium [2, 14]: 100
Plant response rating, Galium [2, 15]: 100
Plant response rating, Galium [2, 16]: 100
Plant response rating: Oilseed Rape [3, 7]: 60
Plant response rating: Oilseed Rape [3, 8]: 95
Plant response rating: Oilseed Rape [3, 9]: 100
Plant response rating, Oilseed Rape [3, 12]: 25
Plant response rating, Oilseed Rape [3, 19]: 0
Plant response rating, Oilseed Rape [3, 20]: 0
Plant response rating, Oilseed Rape [3, 21]: 5
Plant response rating, Oilseed Rape [3, 22]: 15
Plant response rating, Cocklebur [4, 13]: 35
Plant response rating, Rice (0 to 100 scale, 0 is no effect, 100 is complete control) [5]: 50
Plant response rating: Pigweed [6, 7]: 70
Plant response rating: Pigweed [6, 8]: 85
Plant response rating: Pigweed [6, 9]: 95
Plant response rating, Pigweed [6, 12]: 75
Plant response rating, Pigweed [6, 19]: 35
Plant response rating, Pigweed [6, 20]: 75
Plant response rating, Pigweed [6, 21]: 80
Plant response rating, Pigweed [6, 22]: 100
